Source: ChEMBL document CHEMBL1201862, “PubChem BioAssay data set” (2004)
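Results reflect a 48-hour exposure of cells in 96-well plates to compound at five concentrations. At the GI50, growth is halved.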 The source made the active and inactive calls. Rule as the data show it: active = GI50 up to about 1.1 µM and inactive = higher.

What was measured:
Assay in all cases: inhibition of tumour cell growth, NCI panel, 48 h
OVCAR-3 = test system: OVCAR-3
Malme-3M = test system: Malme-3M
786-0 = test system: 786-0
DU-145 = test system: DU-145
EKVX = test system: EKVX
TK-10 = test system: TK-10
OVCAR-5 = test system: OVCAR-5
SNB-19 = test system: SNB-19
SF-268 = test system: SF-268
MDA-MB-231 = test system: MDA-MB-231
SN12C = test system: SN12C
UACC-257 = test system: UACC-257
SNB-75 = test system: SNB-75
KM12 = test system: KM12
CAKI-1 = test system: CAKI-1
SK-MEL-2 = test system: SK-MEL-2
U-251 = test system: U-251
Hs-578T = test system: Hs-578T
HL-60 = test system: HL-60

Row | SMILES | GI50 (OVCAR-3) | GI50 (Malme-3M) | GI50 (786-0) | GI50 (DU-145) | GI50 (EKVX) | GI50 (TK-10) | GI50 (OVCAR-5) | GI50 (SNB-19) | GI50 (SF-268) | GI50 (MDA-MB-231) | GI50 (SN12C) | GI50 (UACC-257) | GI50 (SNB-75) | GI50 (KM12) | GI50 (CAKI-1) | GI50 (SK-MEL-2) | GI50 (U-251) | GI50 (Hs-578T) | GI50 (HL-60)
1 | COc1ccc2[nH]c(C(O)(Cc3cccnc3)Cc3cccnc3)cc2c1 | > 100 µM (inactive) | > 100 µM (inactive) | > 100 µM (inactive) | > 100 µM (inactive) | > 100 µM (inactive) | > 100 µM (inactive) | > 100 µM (inactive) | > 100 µM (inactive) | > 100 µM (inactive) | > 100 µM (inactive) | > 100 µM (inactive) | > 100 µM (inactive) | > 100 µM (inactive) | > 100 µM (inactive) | > 100 µM (inactive) | > 100 µM (inactive) | > 100 µM (inactive) | > 100 µM (inactive) | –
2 | COc1ccc(C(O)/C(=C/n2ccnc2)c2ccccc2)cc1OC (stereo not given) | > 100 µM (inactive) | > 100 µM (inactive) | > 100 µM (inactive) | – | > 100 µM (inactive) | > 100 µM (inactive) | > 100 µM (inactive) | > 100 µM (inactive) | > 100 µM (inactive) | – | > 100 µM (inactive) | > 100 µM (inactive) | 49.4 µM (inactive) | > 100 µM (inactive) | – | > 100 µM (inactive) | > 100 µM (inactive) | – | > 100 µM (inactive)
3 | Oc1c(Cl)cc2cc1-c1cc(cc(Cl)c1O)CCc1c(cc(Cl)c(O)c1Cl)-c1cc(Cl)c(c(Cl)c1O)/C=C\2 | 7.4 µM (inactive) | – | 8.36 µM (inactive) | 9.18 µM (inactive) | – | – | 10.8 µM (inactive) | 11.6 µM (inactive) | 8.43 µM (inactive) | – | – | 13.6 µM (inactive) | 9.02 µM (inactive) | 7.76 µM (inactive) | – | 8.81 µM (inactive) | 11.6 µM (inactive) | 11.1 µM (inactive) | 5.61 µM (inactive)
4 | COc1cc2c(cc1OCCCC(=O)Nc1cc(C(=O)NCCCN(C)C)n(C)n1)N=CC1CCCN1C2=O (stereo not given) | 27.5 µM (inactive) | 6.97 µM (inactive) | 6.46 µM (inactive) | 12.9 µM (inactive) | > 47.4 µM (inactive) | 7.4 µM (inactive) | 10.5 µM (inactive) | 10 µM (inactive) | 16.2 µM (inactive) | 19.7 µM (inactive) | 7.11 µM (inactive) | 7.45 µM (inactive) | 7.85 µM (inactive) | > 100 µM (inactive) | 21.6 µM (inactive) | 10.8 µM (inactive) | 8.77 µM (inactive) | 11 µM (inactive) | –
5 | COC(=O)N/N=C(\C(=O)Nc1cccc([N+](=O)[O-])c1)c1nc2ccc([N+](=O)[O-])cc2nc1O | 49.8 µM (inactive) | > 100 µM (inactive) | 53.1 µM (inactive) | – | > 100 µM (inactive) | > 100 µM (inactive) | > 100 µM (inactive) | > 100 µM (inactive) | 0.38 µM (active) | – | > 100 µM (inactive) | > 100 µM (inactive) | 85.7 µM (inactive) | 29.4 µM (inactive) | – | – | – | – | > 100 µM (inactive)
6 | COP(=O)(OC)C(NC(=O)C(F)(F)F)(c1ccccc1)C(F)(F)F (stereo not given) | > 100 µM (inactive) | > 100 µM (inactive) | > 100 µM (inactive) | – | > 100 µM (inactive) | > 100 µM (inactive) | > 100 µM (inactive) | > 100 µM (inactive) | > 100 µM (inactive) | – | > 100 µM (inactive) | > 100 µM (inactive) | > 100 µM (inactive) | > 100 µM (inactive) | > 100 µM (inactive) | > 100 µM (inactive) | > 100 µM (inactive) | – | > 100 µM (inactive)
7 | COC(CO[Si](C)(C)N[Si](C)(C)OCC(OC)c1ccccc1)c1ccccc1 (stereo not given) | > 100 µM (inactive) | – | > 100 µM (inactive) | > 100 µM (inactive) | > 100 µM (inactive) | > 100 µM (inactive) | > 100 µM (inactive) | > 100 µM (inactive) | – | – | > 100 µM (inactive) | > 100 µM (inactive) | > 100 µM (inactive) | > 100 µM (inactive) | > 100 µM (inactive) | > 100 µM (inactive) | > 100 µM (inactive) | – | > 100 µM (inactive)
8 | CCOP(=O)(OCC)/C(=C\n1c(=S)[nH]c2cc(C)ccc21)C(=O)OC | > 100 µM (inactive) | – | > 100 µM (inactive) | > 100 µM (inactive) | 45.8 µM (inactive) | > 100 µM (inactive) | > 100 µM (inactive) | > 100 µM (inactive) | > 100 µM (inactive) | > 100 µM (inactive) | > 100 µM (inactive) | > 100 µM (inactive) | > 100 µM (inactive) | > 100 µM (inactive) | > 100 µM (inactive) | > 100 µM (inactive) | > 100 µM (inactive) | – | 42.6 µM (inactive)
